Data reported in patent US20170198006A1, “PRMT5 INHIBITORS AND USES THEREOF” (Epizyme, Inc., priority 2014, published 2017).

Assays:
PRMT5/MEP50 = target: T1, PRMT5/MEP50 (Homo sapiens, UniProt O14744); assay: PRMT5 Biochemical Assay (PRMT5/MEP50 enzyme assay on histone H4 peptide substrate, 3H-SAM Flashplate); settings: PRMT5 biochemical assay; read-out: Biochemical IC50
T1 construct: Flag-PRMT5; made in house; host or cells: Spodoptera frugiperda (SF9), baculovirus
Procedure, shortened: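 Sf9-expressed Flag-PRMT5/6His-MEP50 preincubated with compound 30 min at 25 °C, then methylation of biotinylated H4 1-15 peptide started with ³H-SAM in 20 mM Bicine pH 7.6, 1 mM TCEP, 0.005% BSG, 0.002% Tween20.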

[1] = system: symmetric di-methyl arginine in Z-138 cells; assay: Z-138 Methylation Assay (In Cell Western for symmetric di-methyl arginine and DNA content); type: cell-based; settings: Homo sapiens, read-out: ICW EC50
Source text: Z-138 suspension cells were purchased from ATCC (American Type Culture Collection, Manassas, Va.). RPMI/Glutamax medium, penicillin-streptomycin, heat inactivated fetal bovine serum, and D-PBS were purchased from Life Technologies, Grand Island, N.Y., USA. Odyssey blocking buffer, 800CW goat anti-rabbit IgG (H+L) antibody, and Licor Odyssey infrared scanner were purchased from Licor Biosciences, Lincoln, Nebr., USA. Symmetric di-methyl arginine antibody was purchased from EMD Millipore, Billerica, Mass., USA. 16% Paraformaldehyde was purchased from Electron Microscopy Sciences, Hatfield, Pa., USA.
Z-138 suspension cells were maintained in growth medium (RPMI 1640 supplemented with 10% v/v heat inactivated fetal bovine serum and 100 units/mL penicillin-streptomycin) and cultured at 37° C. under 5% CO2.
Cell Treatment, in Cell Western (ICW) for Detection of Symmetric Di-Methyl Arginine and DNA Content.
Z-138 cells were seeded in assay medium at a concentration of 50,000 cells per mL to a 384-well cell culture plate with 50 μL per well. Compound (100 nL) from 384 well source plates was added directly to 384 well cell plate. Plates were incubated at 37° C., 5% CO2 for 96 hours. After four days of incubation, 40 μL of cells from incubated plates were added to poly-D-lysine coated 384 well culture plates (BD Biosciences 356697). Plates were incubated at room temperature for 30 minutes then incubated at 37° C., 5% CO2 for 5 hours. After the incubation, 40 μL per well of 8% paraformaldehyde in PBS (16% paraformaldahyde was diluted to 8% in PBS) was added to each plate and incubated for 30 minutes. Plates were transferred to a Biotek 405 plate washer and washed 5 times with 100 μL per well of wash buffer (1×PBS with 0.1% Triton X-100 (v/v)). Next 30 μL per well of Odyssey blocking buffer were added to each plate and incubated 1 hour at room temperature. Blocking buffer was removed and 20 μL per well of primary antibody was added (symmetric di-methyl arginine diluted 1:100 in Odyssey buffer with 0.1% Tween 20 (v/v)) and plates were incubated overnight (16 hours) at 4° C. Plates were washed 5 times with 100 μL per well of wash buffer. Next 20 μL per well of secondary antibody was added (1:200 800CW goat anti-rabbit IgG (H+L) antibody, 1:1000 DRAQ5 (Biostatus limited) in Odyssey buffer with 0.1% Tween 20 (v/v)) and incubated for 1 hour at room temperature. The plates were washed 5 times with 100 μL per well wash buffer then 1 time with 100 μL per well of water. Plates were allowed to dry at room temperature then imaged on the Licor Odyssey machine which measures integrated intensity at 700 nm and 800 nm wavelengths. Both 700 and 800 channels were scanned.
First, the ratio for each well was determined by:
Each plate included fourteen control wells of DMSO only treatment (minimum inhibition) as well as fourteen control wells for maximum inhibition treated with 3 μM of a reference compound (Background wells). The average of the ratio values for each control type was calculated and used to determine the percent inhibition for each test well in the plate. Reference compound was serially diluted three-fold in DMSO for a total of nine test concentrations, beginning at 3 μM. Percent inhibition was determined and IC50 curves were generated using triplicate wells per concentration of compound.

Z-138 cells = assay: Z-138 Proliferation Assay (Cell Titer Glo, 5 days); type: cell-based; settings: Homo sapiens, 120 h
Source text: Z-138 Proliferation Assay
Z-138 suspension cells were purchased from ATCC (American Type Culture Collection, Manassas, Va.). RPMI/Glutamax medium, penicillin-streptomycin, heat inactivated fetal bovine serum were purchased from Life Technologies, Grand Island, N.Y., USA. V-bottom polypropylene 384-well plates were purchased from Greiner Bio-One, Monroe, N.C., USA. Cell culture 384-well white opaque plates were purchased from Perkin Elmer, Waltham, Mass., USA. Cell-Titer Glo® was purchased from Promega Corporation, Madison, Wis., USA. SpectraMax M5 plate reader was purchased from Molecular Devices LLC, Sunnyvale, Calif., USA.
Z-138 suspension cells were maintained in growth medium (RPMI 1640 supplemented with 10% v/v heat inactivated fetal bovine serum and cultured at 37° C. under 5% CO2. Under assay conditions, cells were incubated in assay medium (RPMI 1640 supplemented with 10% v/v heat inactivated fetal bovine serum and 100 units/mL penicillin-streptomycin) at 37° C. under 5% CO2.
For the assessment of the effect of compounds on the proliferation of the Z-138 cell line, exponentially growing cells were plated in 384-well white opaque plates at a density of 10,000 cells/ml in a final volume of 50 μl of assay medium. A compound source plate was prepared by performing triplicate nine-point 3-fold serial dilutions in DMSO, beginning at 10 mM (final top concentration of compound in the assay was 20 μM and the DMSO was 0.2%). A 100 nL aliquot from the compound stock plate was added to its respective well in the cell plate. […] After addition of compounds, assay plates were incubated for 5 days at 37° C., 5% CO2, relative humidity >90%.
Cell viability was measured by quantitation of ATP present in the cell cultures, adding 35 μl of Cell Titer Glo® reagent to the cell plates. Luminescence was read in the SpectraMax M5 microplate reader. The concentration of compound inhibiting cell viability by 50% was determined using a 4-parametric fit of the normalized dose response curves.

T1 sequence (O14744 with tags, fused parts or gaps): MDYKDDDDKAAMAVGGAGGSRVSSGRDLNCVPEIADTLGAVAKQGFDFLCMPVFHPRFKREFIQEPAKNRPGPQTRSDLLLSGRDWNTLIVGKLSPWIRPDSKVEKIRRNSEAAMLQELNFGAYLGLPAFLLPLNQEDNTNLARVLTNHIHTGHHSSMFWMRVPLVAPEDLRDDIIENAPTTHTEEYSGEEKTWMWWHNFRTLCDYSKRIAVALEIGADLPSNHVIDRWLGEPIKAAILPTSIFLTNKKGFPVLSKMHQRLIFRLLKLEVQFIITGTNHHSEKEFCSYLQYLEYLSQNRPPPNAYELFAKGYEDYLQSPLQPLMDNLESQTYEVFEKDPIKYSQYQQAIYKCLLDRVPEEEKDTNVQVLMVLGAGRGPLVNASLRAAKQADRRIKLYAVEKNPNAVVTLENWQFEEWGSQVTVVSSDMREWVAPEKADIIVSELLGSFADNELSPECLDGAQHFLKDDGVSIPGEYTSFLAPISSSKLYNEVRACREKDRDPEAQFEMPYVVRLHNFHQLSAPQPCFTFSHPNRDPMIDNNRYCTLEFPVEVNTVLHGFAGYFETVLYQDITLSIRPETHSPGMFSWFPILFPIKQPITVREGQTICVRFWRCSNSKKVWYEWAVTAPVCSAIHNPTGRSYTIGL
T1 sequence (Q9BQA1 with tags, fused parts or gaps partner limits assumed): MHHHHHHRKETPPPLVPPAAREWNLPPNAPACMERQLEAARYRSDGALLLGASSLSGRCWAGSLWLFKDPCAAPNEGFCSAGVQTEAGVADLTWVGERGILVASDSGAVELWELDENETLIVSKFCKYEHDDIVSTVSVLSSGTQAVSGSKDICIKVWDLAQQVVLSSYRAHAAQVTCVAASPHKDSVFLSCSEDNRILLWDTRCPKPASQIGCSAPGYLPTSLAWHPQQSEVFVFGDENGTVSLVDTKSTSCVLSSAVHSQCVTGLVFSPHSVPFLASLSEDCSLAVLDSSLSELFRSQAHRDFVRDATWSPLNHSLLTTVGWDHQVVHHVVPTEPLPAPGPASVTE

Row | SMILES | IC50 (PRMT5/MEP50) [nM] | EC50 [1] [nM] | EC50 (Z-138 cells) [nM]
1 | CC(=O)N1CCC(Nc2cc(C(=O)N(C)C[C@H](O)CN3CCc4ccccc4C3)ccn2)CC1 [Compound 10-9] | < 100 | < 100 | 101 to 1000
2 | CCOc1c(C)cc(S(=O)(=O)NCC2CCN(Cc3ccccc3-c3ccccc3)CC2)cc1C [Compound 7-3] | 101 to 1000 | – | > 20000
3 | Cc1cn(Cc2ccccc2)c(CN)n1 [Compound 3-13] | 101 to 1000 | > 1000 | > 5000
4 | O=C(NC[C@H](O)CN1CCc2ccccc2C1)c1cc(NC2CN(C(=O)C3CCC3)C2)ncn1 [Compound 14-9] | < 100 | < 100 | < 100
5 | O=C(NC[C@@H](O)CN1CCc2ccccc2C1)c1cccc(NC2CCOCC2)c1 [Compound 24-9] | 101 to 1000 | 101 to 1000 | > 5000
6 | O=S(=O)(NCC1CCN(Cc2ccco2)CC1)c1ccc(Oc2ccccc2)cc1 [Compound 8-3] | 101 to 1000 | – | > 20000
7 | CN(C)c1cccc2c(S(=O)(=O)NC[C@H](N)Cc3ccccc3)cccc12 [Compound 4-7] | 101 to 1000 | 101 to 1000 | –
8 | CCOc1c(C)cc(S(=O)(=O)NCC2CCN(Cc3cccc4c3OCO4)CC2)cc1C [Compound 5-3] | 101 to 1000 | – | > 20000
9 | CN(C)c1cccc2c(S(=O)(=O)N[C@H]3CC(=O)N(c4ccccc4)C3)cccc12 [Compound 3-4, (S)-5-(dimethylamino)-N-(5-oxo-1-phenylpyrrolidin-3-yl)naphthalene-1-sulfonamide] | < 100 | < 100 | 1000 to 10000
10 | CCOc1c(C)cc(S(=O)(=O)NCC2CCN(Cc3c(SC(C)C)nc4sccn34)CC2)cc1C [Compound 9-3] | < 100 | – | > 20000
11 | CN(C)c1cccc2c(S(=O)(=O)NC3CC(=O)N(c4ccccc4F)C3)cccc12 (stereo not shown) [Compound 5-4] | < 100 | 101 to 1000 | 1000 to 10000
12 | O=C(NC[C@H](O)CN1Cc2ccccc2C1)c1ccnc(NC2CCNC2)c1 (stereo partly shown) [Compound 1-11] | 101 to 1000 | – | > 20000
13 | CN(C)c1cccc2c(S(=O)(=O)NC3CCN(Cc4ccccc4)CC3)cccc12 [Compound 14-3] | < 100 | 1000 to 10000 | > 20000
14 | CC(=O)N1CC(Nc2cc(C(=O)NCC(C)(O)CN3CCc4ccccc4C3)ncn2)C1 (stereo not shown) [Compound 6-9] | 101 to 1000 | 101 to 1000 | > 5000
15 | O=C(NCC(O)CN1CCc2ccccc2C1)c1ccc(OC2CCOC2)cc1 (stereo not shown) [1-10] | < 100 | < 100 | 1000 to 10000
16 | CC(=O)N1CCC(Nc2cc(C(=O)NC[C@@H](O)CN3CCc4ccccc4C3(C)C)ccn2)CC1 [Compound 13-9] | 101 to 1000 | 101 to 1000 | 1000 to 10000
17 | CN(C)c1cccc2c(S(=O)(=O)NCCC(N)Cc3ccccc3)cccc12 (stereo not shown) [Compound 2-7, N-(3-amino-4-phenylbutyl)-5-(dimethylamino)naphthalene-1-sulfonamide] | < 100 | 101 to 1000 | 1000 to 10000
18 | O=C(CC1NC(N2CCc3ccccc3C2)=NC1=O)Nc1ccc(Oc2ccccc2)cc1 (stereo not shown) [Compound 12-14] | 101 to 1000 | > 20000 | > 20000

Row | SMILES | IC50 (PRMT5/MEP50) [nM] | EC50 [1] [nM] | EC50 (Z-138 cells) [nM]
19 | CC(=O)N1CCC(Nc2cc(C(=O)NCC(C)(O)CN3CCc4ccccc4C3)ccn2)CC1 (stereo not shown) [Compound 12-9] | < 100 | < 100 | 1000 to 10000
20 | CN(C)c1cccc2c(S(=O)(=O)N[C@H]3CCN(Cc4ccccc4)C3)cccc12 [Compound 2-5, (S)—N-(1-benzylpyrrolidin-3-yl)-5-(dimethylamino)naphthalene-1-sulfonamide] | < 100 | 101 to 1000 | > 20000
21 | O=C1CC(NS(=O)(=O)c2cccc3ccccc23)CN1c1ccccc1 (stereo not shown) [Compound 2-4] | 101 to 1000 | 101 to 1000 | 10000 to 50000
22 | O=C(CC1NC(N2CCN(c3ccccc3)CC2)=NC1=O)Nc1ccc(Cl)cc1 (stereo not shown) [Compound 1-6] | 101 to 1000 | 101 to 1000 | > 20000
23 | CN1CCC(NC2=NN(C)CC(C(=O)NC[C@H](O)CN3CCc4ccccc4C3)C2)C1 (stereo partly shown) [1-12] | < 100 | 101 to 1000 | > 5000
24 | CC(=O)N1CCC(Nc2cc(C(=O)NC[C@H](O)CNCc3ccccc3)ccn2)CC1 [Compound 1-8, (R)-2-((1-acetylpiperidin-4-yl)amino)-N-(3-(benzylamino)-2-hydroxypropyl)isonicotinamide] | 101 to 1000 | – | > 5000
25 | CS(=O)(=O)N1CCC(Nc2cncc(C(=O)NC[C@H](O)CN3Cc4ccccc4C3)c2)CC1 [Compound 2-11] | < 100 | 101 to 1000 | 10000 to 50000
26 | COc1ccc(Cn2c(CN3CCCCC3)cnc2CN)cc1 [Compound 4-13] | 10000 to 50000 | > 1000 | > 5000
27 | NCc1nccn1Cc1cccc(Br)c1 [Compound 6-13] | 10000 to 50000 | > 1000 | > 5000
28 | Cc1cccc(Cn2ccnc2CN)c1 [Compound 1-13] | 1000 to 10000 | > 1000 | > 5000
29 | CN(C)c1cccc2c(S(=O)(=O)NC3CC(=O)N(c4cccc(F)c4)C3)cccc12 (stereo not shown) [Compound 6-4] | 101 to 1000 | 1000 to 10000 | –
30 | CN(C)c1cccc2c(S(=O)(=O)NC3CCN(Cc4ccco4)CC3)cccc12 [Compound 13-3] | 101 to 1000 | – | > 20000
31 | CCOc1c(C)cc(S(=O)(=O)NCC2CCN(Cc3ccccc3Br)CC2)cc1C [Compound 4-3] | 101 to 1000 | – | > 20000
32 | CCOc1c(C)cc(S(=O)(=O)NCC2CCN(Cc3c(-c4ccccc4)[nH]c4ccccc34)CC2)cc1C [Compound 11-3] | 101 to 1000 | – | > 20000
33 | O=S(=O)(NCC1CCN(Cc2ccco2)CC1)c1cccc2c(Cl)cccc12 [Compound 12-3, 5-chloro-N-((1-(furan-2-ylmethyl)piperidin-4-yl)methyl)naphthalene-1-sulfonamide] | 101 to 1000 | 10000 to 50000 | –
34 | CCOc1c(C)cc(S(=O)(=O)NCC2CCN(Cc3ccc4ccccc4c3)CC2)cc1C [Compound 10-3] | 101 to 1000 | – | > 20000
35 | CCOc1c(C)cc(S(=O)(=O)NCC2CCN(Cc3ccc4ncccc4c3)CC2)cc1C [Compound 6-3] | 101 to 1000 | – | > 20000
